Assay results: ChEMBL document CHEMBL6087385, “Synthesis and biological evaluation of Ribo 7-N/O/S pyrimidine 9-deaza C-nucleoside analogs as new antiviral agents for inhibiting HCV RNA-dependent RNA polymerases” (Eur J Med Chem, 2024)

Columns and labels:
[1] = Drug concentration in Sprague-Dawley rat liver at 2 mg/kg, iv measured upto 24 hrs in presence of ATP by LC-MS/MS analysis; assay type: ADME, organism-based; conditions: read-out: Ct
[2] = tested on: Hepatitis C virus; test: Antiviral activity against HCV genotype 1a infected in GLuc-1 cells; assay type: functional, organism-based, Hepacivirus hominis
[3] = tested on: Hepatitis C virus; test: Anti-viral activity against HCV genotype 1b infected in human Huh-luc cells; assay type: functional, organism-based, Hepacivirus hominis
[4] = tested on: Hepatitis C virus; test: Anti-viral activity against HCV genotype 2a infected in Lunet-CD81 cells; assay type: functional, organism-based, Hepacivirus hominis
[5] = Tmax in female mouse at 1 mg/kg, iv by reverse phase chromatography; assay type: ADME, organism-based; conditions: in vivo
[6] = Tmax in female mouse at 5 mg/kg, po by reverse phase chromatography; assay type: ADME, organism-based; conditions: in vivo
[7] = Tmax in Sprague-Dawley rat at 5 mg/kg, po by reverse phase chromatography; assay type: ADME, organism-based; conditions: in vivo
[8] = Tmax in Cynomolgus monkey at 1 mg/kg, iv by reverse phase chromatography; assay type: ADME, organism-based, Macaca fascicularis; conditions: in vivo
[9] = Cmax in female mouse at 1 mg/kg, iv by reverse phase chromatography; assay type: ADME, organism-based; conditions: in vivo
[10] = Cmax in female mouse at 5 mg/kg, po by reverse phase chromatography; assay type: ADME, organism-based; conditions: in vivo
[11] = Cmax in Sprague-Dawley rat at 1 mg/kg, iv by reverse phase chromatography; assay type: ADME, organism-based; conditions: in vivo
[12] = Cmax in Sprague-Dawley rat at 5 mg/kg, po by reverse phase chromatography; assay type: ADME, organism-based; conditions: in vivo
[13] = Cmax in Sprague-Dawley rat at 10 mg/kg, po by reverse phase chromatography; assay type: ADME, organism-based; conditions: in vivo
[14] = Half life in female mouse at 5 mg/kg, po by reverse phase chromatography; assay type: ADME, organism-based; conditions: in vivo
[15] = Half life in Sprague-Dawley rat at 1 mg/kg, iv by reverse phase chromatography; assay type: ADME, organism-based; conditions: in vivo
[16] = Half life in Sprague-Dawley rat at 10 mg/kg, po by reverse phase chromatography; assay type: ADME, organism-based; conditions: in vivo
[17] = Volume of distribution in Cynomolgus monkey at 1 mg/kg, iv by reverse phase chromatography; assay type: ADME, organism-based, Macaca fascicularis; conditions: in vivo
[18] = Clearance in female mouse at 1 mg/kg, iv by reverse phase chromatography; assay type: ADME, organism-based; conditions: in vivo
[19] = Clearance in Sprague-Dawley rat at 1 mg/kg, iv by reverse phase chromatography; assay type: ADME, organism-based; conditions: in vivo
[20] = Clearance in Cynomolgus monkey at 1 mg/kg, iv by reverse phase chromatography; assay type: ADME, organism-based, Macaca fascicularis; conditions: in vivo
[21] = AUC in female mouse at 1 mg/kg, iv by reverse phase chromatography; assay type: ADME, organism-based; conditions: in vivo
[22] = AUC in female mouse at 5 mg/kg, po by reverse phase chromatography; assay type: ADME, organism-based; conditions: in vivo
[23] = AUC (0 to infinity) in female mouse at 1 mg/kg, iv by reverse phase chromatography; assay type: ADME, organism-based; conditions: in vivo
[24] = AUC (0 to infinity) in Sprague-Dawley rat at 1 mg/kg, iv by reverse phase chromatography; assay type: ADME, organism-based; conditions: in vivo
[25] = AUC (0 to infinity) in Sprague-Dawley rat at 10 mg/kg, po by reverse phase chromatography; assay type: ADME, organism-based; conditions: in vivo
[26] = AUC (0 to infinity) in Cynomolgus monkey at 1 mg/kg, iv by reverse phase chromatography; assay type: ADME, organism-based, Macaca fascicularis; conditions: in vivo
[27] = Oral bioavailability in mouse at 5 mg/kg by reverse phase chromatography; assay type: ADME, organism-based; conditions: in vivo
[28] = Oral bioavailability in Sprague-Dawley rat at 5 mg/kg by reverse phase chromatography; assay type: ADME, organism-based; conditions: in vivo
[29] = Oral bioavailability in Sprague-Dawley rat at 10 mg/kg by reverse phase chromatography; assay type: ADME, organism-based; conditions: in vivo
[30] = Metabolic stability in dog liver microsome assessed as half life in presence of NADPH; assay type: ADME, Canis lupus familiaris; conditions: liver microsomes
[31] = Metabolic stability in Non human primate liver microsome assessed as half life in presence of NADPH; assay type: ADME; conditions: liver microsomes
[32] = Metabolic stability in cryopreserved dog hepatocyte assessed as half life in presence of NADPH; assay type: ADME, cell-based, Canis lupus familiaris; conditions: cryopreserved hepatocytes
[33] = Metabolic stability in cryopreserved Non human primate hepatocyte assessed as half life in presence of NADPH; assay type: ADME, cell-based; conditions: cryopreserved hepatocytes
[34] = Toxicity in dog assessed as increase in QTc interval at 1 to 5 mg/kg, po measured after 3 hrs; assay type: organism-based, Canis lupus familiaris; conditions: in vivo, dose 1-5 mg/kg
[35] = Genotoxicity in mouse L5178Y cells assessed as increase in forward mutation at thymidine kinase locus measured after 4 hrs; assay type: toxicity, cell-based
[36] = Toxicity in rat assessed as change in body weight at 1 to 9 mg/kg, po; assay type: organism-based; conditions: in vivo, dose 1-9 mg/kg
[37] = Toxicity in rat assessed as mortality at 1 to 9 mg/kg, po; assay type: organism-based; conditions: in vivo, dose 1-9 mg/kg
[38] = Toxicity in rat assessed as effect on clinical observations at 1 to 9 mg/kg, po; assay type: organism-based; conditions: in vivo, dose 1-9 mg/kg
[39] = tested on: Hepatitis C virus; test: Antiviral activity against Hepatitis C virus infected in Ava5 cells assessed as inhibition of viral RNA replication incubated for 72 hrs by RT-PCR analysis; assay type: functional, organism-based, Hepacivirus hominis; conditions: Ava5, 72 h
[40] = Toxicity in Sprague-Dawley rat assessed as weight loss at 250 mg/kg, po administered as single dose and measured after 14 days; assay type: organism-based; conditions: in vivo, 336 h, time 14 day
[41] = Toxicity in Sprague-Dawley rat assessed as piloerection at 90 mg/kg, po administered as single dose and measured after 14 days; assay type: organism-based; conditions: in vivo, 336 h, time 14 day
[42] = Toxicity in Sprague-Dawley rat assessed as lethargy at 90 mg/kg, po administered as single dose and measured after 14 days; assay type: organism-based; conditions: in vivo, 336 h, time 14 day
[43] = Toxicity in Sprague-Dawley rat assessed as lethargy at 100 mg/kg, po administered as single dose and measured after 14 days; assay type: organism-based; conditions: in vivo, 336 h, time 14 day
[44] = Toxicity in Sprague-Dawley rat assessed as anogenital staining at 90 mg/kg, po administered as single dose and measured after 14 days; assay type: organism-based; conditions: in vivo, 336 h, time 14 day
[45] = Toxicity in Sprague-Dawley rat assessed as anogenital staining at 100 mg/kg, po administered as single dose and measured after 14 days; assay type: organism-based; conditions: in vivo, 336 h, time 14 day
[46] = Toxicity in Sprague-Dawley rat assessed as eyes and nares staining at 90 mg/kg, po administered as single dose and measured after 14 days; assay type: organism-based; conditions: in vivo, 336 h, time 14 day
[47] = Toxicity in Sprague-Dawley rat assessed as eyes and nares staining at 100 mg/kg, po administered as single dose and measured after 14 days; assay type: organism-based; conditions: in vivo, 336 h, time 14 day
[48] = Toxicity in Sprague-Dawley rat assessed as eyes and nares staining at 250 mg/kg, po administered as single dose and measured after 14 days; assay type: organism-based; conditions: in vivo, 336 h, time 14 day
[49] = Toxicity in Cynomolgus monkey assessed as weight loss at 100 mg/kg, po administered twice a day; assay type: organism-based, Macaca fascicularis; conditions: in vivo
[50] = Toxicity in Cynomolgus monkey assessed as change in ECG at 100 to 500 mg/kg, po administered as single dose; assay type: organism-based, Macaca fascicularis; conditions: in vivo, dose 100-500 mg/kg
[51] = Toxicity in Cynomolgus monkey assessed as change in ECG at 100 mg/kg, po administered twice a day; assay type: organism-based, Macaca fascicularis; conditions: in vivo
[52] = Toxicity in Cynomolgus monkey assessed as emesis at 100 mg/kg, po administered as single dose; assay type: organism-based, Macaca fascicularis; conditions: in vivo
[53] = Toxicity in Cynomolgus monkey assessed as animal death at 100 to 500 mg/kg, po administered as single dose; assay type: organism-based, Macaca fascicularis; conditions: in vivo, dose 100-500 mg/kg
[54] = Toxicity in Cynomolgus monkey assessed as animal death at 100 mg/kg, po administered twice a day; assay type: organism-based, Macaca fascicularis; conditions: in vivo

## C[C@@]1(O)[C@H](O)[C@@H](CO)O[C@H]1c1coc2c(N)ncnc12
[1]
  concentration at 24 h: 420 nM
[2]
  EC50: 5.4 µM
[3]
  EC50: 4.7 µM
[4]
  EC50: > 50 µM
[5]
  Tmax: 4.98 min
[6]
  Tmax: 0.5 h
[7]
  Tmax: 0.5 h
[8]
  Tmax: 1.8 min
[9]
  Cmax: 1130 ng/mL
[10]
  Cmax: 1060 ng/mL
[11]
  Cmax: 1150 ng/mL
[12]
  Cmax: 593 ng/mL
[13]
  Cmax: 1180 ng/mL
[14]
  half-life: 16.6 h
[15]
  half-life: 28.4 h
[16]
  half-life: 8.86 h
[17]
  Vd: 8.67 L/kg
[18]
  clearance: 11.6 mL/min/kg
[19]
  clearance: 17.6 mL/min/kg
[20]
  clearance: 8.56 mL/min/kg
[21]
  AUC: 866 ng·h/mL
[22]
  AUC: 3250 ng·h/mL
[23]
  AUC(0-inf): 1440 ng·h/mL
[24]
  AUC(0-inf): 947 ng·h/mL
[25]
  AUC(0-inf): 5650 ng·h/mL
[26]
  AUC(0-inf): 2340 ng·h/mL
[27]
  bioavailability: 75%
[28]
  bioavailability: 55%
[29]
  bioavailability: 71.2%
[30]
  half-life: > 1.67 h
[31]
  half-life: > 1.67 h
[32]
  half-life: > 1 h
[33]
  half-life: > 1 h
[34]
  Activity: Non-toxic
[35]
  Activity: Toxic
[36]
  Activity: Non-toxic
[37]
  Activity: Non-toxic
[38]
  Activity: Non-toxic
[39]
  EC50: 6.5 µM
[40]
  Activity: Non-toxic
[41]
  Activity: Non-toxic
[42]
  Activity: Non-toxic
[43]
  Activity: Non-toxic
[44]
  Activity: Non-toxic
[45]
  Activity: Non-toxic
[46]
  Activity: Non-toxic
[47]
  Activity: Non-toxic
[48]
  Activity: Non-toxic
[49]
  Activity: Non-toxic
[50]
  Activity: Non-toxic
[51]
  Activity: Non-toxic
[52]
  Activity: Non-toxic
[53]
  Activity: Non-toxic
[54]
  Activity: Non-toxic
